Laboratory results: US12180255B2, “Compositions and methods for derepressing RE1 silencing transcription factor target genes” (Alcamena Stem Cell Therapeutics, LLC, priority 2019, dated 2024)
Where a SMILES comes first, the peptide text is derived from it. [ ]: non-standard residue; d: D form. Gly(Dodecyl) = CCCCCCCCCCCC[C@H](N)C(=O)O

Columns and labels:
Assay type in all cases: biochemical
[1] = target: T1, PPM1A (Homo sapiens, UniProt P35813); assay: Off target phosphatase activity on phosphorylated REST peptide; details: 10000 nM RPP
T1 sequence (P35813 1-382): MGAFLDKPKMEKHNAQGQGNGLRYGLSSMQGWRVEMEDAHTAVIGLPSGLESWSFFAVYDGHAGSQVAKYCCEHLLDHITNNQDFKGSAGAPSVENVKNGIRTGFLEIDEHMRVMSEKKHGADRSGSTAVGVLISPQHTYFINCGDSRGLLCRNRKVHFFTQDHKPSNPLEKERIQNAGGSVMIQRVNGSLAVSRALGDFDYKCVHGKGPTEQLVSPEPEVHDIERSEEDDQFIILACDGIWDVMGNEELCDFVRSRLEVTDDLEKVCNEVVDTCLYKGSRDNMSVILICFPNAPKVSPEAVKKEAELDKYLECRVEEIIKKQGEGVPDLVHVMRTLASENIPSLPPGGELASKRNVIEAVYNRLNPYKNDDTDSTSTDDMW

[2] = target: PP3CA (Homo sapiens, UniProt Q08209); assay: as above; details: 10000 nM RPP
[3] = target: T2, CTDSP1 (Homo sapiens, UniProt Q9GZU7); assay: In vitro CTDSP1 phosphatase activity on phosphorylated REST peptide; details: phosphorylated REST peptide substrate; read-out: EC50, inhibition of CTDSP1 activity
T2 construct: GSGS linker + His6 (C)
T2 sequence (Q9GZU7 with tags, fused parts or gaps): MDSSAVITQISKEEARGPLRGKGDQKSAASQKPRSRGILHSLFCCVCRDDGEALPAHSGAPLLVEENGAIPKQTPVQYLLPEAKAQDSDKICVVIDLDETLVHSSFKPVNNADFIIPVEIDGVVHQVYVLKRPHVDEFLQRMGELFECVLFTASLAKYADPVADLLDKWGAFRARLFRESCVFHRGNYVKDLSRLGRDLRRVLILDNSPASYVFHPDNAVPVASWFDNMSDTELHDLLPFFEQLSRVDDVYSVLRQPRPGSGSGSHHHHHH
Description: FIG. 25. In vitro CTDSP1 phosphatase activity (relative to GST control) on the REST peptide (TEDpSPPp[…] (SEQ ID NO: 329)) as a substrate after exposure to 1 μM of RPP (SEQ ID NO: 1) or one of its variants (Table 3).
FIG. 26. […] N=5, error bars are standard deviation.
Results: FIG. 25—The top 51 most abundant RPP variants identified in the RNA display/protein evolution screen are listed in-Table 3 in the order of most (V1) to least (V51) abundant peptides. The primers used to make these peptides are listed in-Table 5. A phosphatase activity screen (Table 6, FIG. 25) was used to assess the ability of the top 51 RPPV to inhibit CTDSP1 phosphatase activity at amino acids 861 and 864 on the endogenous phosphorylated REST peptide (TEDpSPPp[…] (SEQ ID NO: 329)).
The phosphorylated REST peptide (TEDpSPPp[…] (SEQ ID NO: 329)) was synthesized by GeneScript. Phosphatase reactions were performed with 10 mM Tris pH 8, 10 mM MgCl2, 100 nM CTDSP1, 0.5 μM phosphate sensor (Thermo Fischer), 50 μM of REST peptide and various concentrations of peptide-GST fusions at room temperature for 10 min. All assays were performed in 96-well pates (Corning P/N 3686) rinsed with water 10 times. Fluorescence was measured by BioTek Synergy HTX using kinetic read with excitation at 420/27 nm and emission at 485/20 nm.

[4] = target: T2, CTDSP1; assay: as above; details: relative to water control

CCCCCCCCCCCC[C@@H]1NC(=O)[C@@H](CCCNC(=N)N)NC(=O)[C@@H](CCCNC(=N)N)NC(=O)[C@@H](Cc2c[nH]c3ccccc23)NC(=O)[C@@H](Cc2c[nH]c3ccccc23)NC(=O)[C@@H](CCCNC(=N)N)NC(=O)[C@@H](CCC(=O)O)NC(=O)[C@@H](CC(=O)O)NC(=O)[C@@H](CC(C)C)NC(=O)[C@@H](CCC(=O)O)NC(=O)[C@H]2CCCN2C(=O)[C@H]2CCCN2C(=O)[C@@H](CCC(=O)O)NC(=O)[C@H]2CCCN2C(=O)[C@H]2CCCN2C(=O)[C@@H](CC(C)C)NC(=O)[C@H]2CCCN2C(=O)[C@@H](CCCCN)NC(=O)[C@@H](CCCNC(=N)N)NC(=O)[C@@H](CCCNC(=N)N)NC(=O)[C@@H](CCCNC(=N)N)NC(=O)[C@@H](CCCNC(=N)N)NC(=O)[C@@H](CCCNC(=N)N)NC1=O [SEQ ID NO: 12] (cyclo([dR][dW][dW][dR][dR][Gly(Dodecyl)][dR][dR][dR][dR][dR][dK][dP][dL][dP][dP][dE][dP][dP][dE][dL][dD][dE]))
% Activity (Average N = 5) [1]: 102.786% | % Activity (Average N = 5) [2]: 100.222% | EC50 [3]: ~20 nM | % Activity (Average N = 5) ([4]; 10 nM RPP): 89.97% | % Activity (Average N = 5) ([4]; 20 nM RPP): 48.7% | % Activity (Average N = 5) ([4]; 40 nM RPP): 34.46% | % Activity (Average N = 5) ([4]; 60 nM RPP): 31.17% | % Activity (Average N = 5) ([4]; 80 nM RPP): 22.67% | % Activity (Average N = 5) ([4]; 100 nM RPP): 13.72%
